We go through 2 compounds from patent US9493436B2, “Tyrosine phosphatase inhibitors and uses thereof to modulate the activity of enzymes involved in the pathology of Mycobacterium tuberculosis” (priority 2011, dated 2016).

For one data set, the target named is T1, Cdc14A (Homo sapiens, UniProt Q9UNH5).
T1 sequence (Q9UNH5 1-594): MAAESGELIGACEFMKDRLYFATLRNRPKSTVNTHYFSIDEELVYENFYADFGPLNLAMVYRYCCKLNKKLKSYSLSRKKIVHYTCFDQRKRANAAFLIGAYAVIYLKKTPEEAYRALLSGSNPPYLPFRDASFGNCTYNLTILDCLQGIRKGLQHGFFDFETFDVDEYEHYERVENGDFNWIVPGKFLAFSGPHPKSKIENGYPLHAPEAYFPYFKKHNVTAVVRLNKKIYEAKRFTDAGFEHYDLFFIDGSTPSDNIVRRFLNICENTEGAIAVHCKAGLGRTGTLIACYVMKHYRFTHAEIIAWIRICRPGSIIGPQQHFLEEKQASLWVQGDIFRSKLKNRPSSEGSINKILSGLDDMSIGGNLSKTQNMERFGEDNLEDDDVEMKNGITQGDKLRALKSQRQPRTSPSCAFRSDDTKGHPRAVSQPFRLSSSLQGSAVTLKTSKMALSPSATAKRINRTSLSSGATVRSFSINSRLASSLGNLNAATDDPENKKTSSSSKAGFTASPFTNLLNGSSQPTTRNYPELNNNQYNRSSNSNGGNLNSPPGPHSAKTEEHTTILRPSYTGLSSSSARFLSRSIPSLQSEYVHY
As to the kind of experiment: PTP selectivity panel: Cdc14A. The data set is classed as biochemical.

For another data set, the target named is SHP2 (Homo sapiens, UniProt Q06124). The settings on record: read-out: IC50 (μM) SHP2.
Sequence of SHP2 (Q06124 whole entry, species assumed): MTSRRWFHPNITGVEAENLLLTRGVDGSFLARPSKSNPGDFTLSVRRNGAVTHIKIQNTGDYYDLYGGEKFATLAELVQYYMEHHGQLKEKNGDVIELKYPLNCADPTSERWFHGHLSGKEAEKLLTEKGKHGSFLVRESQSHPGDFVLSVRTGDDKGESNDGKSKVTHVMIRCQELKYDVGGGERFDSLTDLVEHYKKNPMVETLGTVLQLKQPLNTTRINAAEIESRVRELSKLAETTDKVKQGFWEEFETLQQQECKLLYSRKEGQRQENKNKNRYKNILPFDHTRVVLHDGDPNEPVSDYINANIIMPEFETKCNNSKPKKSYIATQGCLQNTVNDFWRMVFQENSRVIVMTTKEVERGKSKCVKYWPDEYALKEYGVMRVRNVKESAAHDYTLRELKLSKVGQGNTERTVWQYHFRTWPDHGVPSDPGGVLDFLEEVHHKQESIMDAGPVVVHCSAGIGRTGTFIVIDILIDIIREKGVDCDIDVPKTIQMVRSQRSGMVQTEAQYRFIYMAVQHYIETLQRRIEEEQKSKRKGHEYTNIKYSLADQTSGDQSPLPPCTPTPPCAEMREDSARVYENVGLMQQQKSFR
Data set [1] in a line: Oral and intravenous pharmacokinetics in mice. In kind it is in vivo. The protocol:
Oral and intravenous (IV) pharmacokinetics were determined for compounds L01-Z06, L01-Z08 and L01-Z09 in mice. Drugs were administered by a single IV injection (5 mg/kg) or oral gavage (25 mg/kg) in 20% hydroxypropyl-b-cyclodextrin/2% diethanolamine and blood samples were collected at 0.5, 1, 3, 6, 9 and 24 hours later. All three compounds were readily administered by both IV and oral routes. […] Drug levels peaked at […] after IV injection, or […] after oral gavage. Based on these parameters, all three compounds are classified as highly permeable with moderate-slow clearance rates.

A further data set concerns the target SHP1-D1C (Homo sapiens, UniProt P29350). As to the kind of experiment: biochemical.

Like-named read-outs stand apart in the source and are kept apart here.

Sequence of SHP1-D1C (P29350 244-528 limits assumed): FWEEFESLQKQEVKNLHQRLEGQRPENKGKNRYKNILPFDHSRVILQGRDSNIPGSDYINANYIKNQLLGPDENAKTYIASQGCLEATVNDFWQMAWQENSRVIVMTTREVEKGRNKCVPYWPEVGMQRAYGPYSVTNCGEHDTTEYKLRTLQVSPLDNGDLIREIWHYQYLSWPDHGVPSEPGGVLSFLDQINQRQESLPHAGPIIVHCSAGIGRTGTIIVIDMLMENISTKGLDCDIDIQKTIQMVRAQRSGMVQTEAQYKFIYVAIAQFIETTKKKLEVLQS

Consider `O=C(O)c1cc2c(C#Cc3cccc(C(F)(F)F)c3)c(-c3ccccc3)oc2cc1O` [32 (L01Z08)], for which the IC50 against Cdc14A is 6 ± 1 µM; on SHP2 it was 1.8 ± 0.2 µM. In addition, the “clearance ranking among the three compounds” value in data set [1] (mice) is “slowest clearance of the three”. Moreover, the “Clearance % LPF” value in data set [1] (mice, IV 5 mg/kg) was found to be 28.9 % LPF; in data set [1] (mice, PO 25 mg/kg), 38.2 % LPF. In data set [1] (mice, PO 25 mg/kg), the “Vdss” value stood at 6.58 L/kg. Also, the “clearance” value in data set [1] (mice, PO 25 mg/kg) was 1236.1 mL/h/kg; in data set [1] (mouse, blood, mice, IV 5 mg/kg, data normalized to 25 mg/kg dose, read-out: Clearance (converted)), 935 mL/h/kg. In data set [1] (mice, after oral delivery), the “time active levels (sufficient to inhibit target activity by 80% in cells) maintained” value worked out at 18.5 h. In addition, in data set [1] (mouse, blood, iv, 5 mg/kg, mice, IV 5 mg/kg), the Tmax was 30 min. Moreover, the half-life in data set [1] (mouse, blood, mice, IV 5 mg/kg) is 246 min; in data set [1] (mouse, blood, mice, PO 25 mg/kg) it was 222 min. The Cmax in data set [1] (mouse, blood, mice, IV 5 mg/kg, data normalized to 25 mg/kg dose, read-out: Cmax (ng/mL)) is 10200 ng/mL; in data set [1] (mouse, blood, mice, IV 5 mg/kg, data normalized to 25 mg/kg dose, read-out: Cmax nM), 25500 nM; in data set [1] (mouse, blood, mice, PO 25 mg/kg, read-out: Cmax (ng/mL)), 2880 ng/mL; in data set [1] (mouse, blood, mice, PO 25 mg/kg, read-out: Cmax nM), 7210 nM. Moreover, the Vd in data set [1] (mouse, blood, mice, IV 5 mg/kg, read-out: Vdss) turned out to be 5.53 L/kg. For the same compound, the bioavailability in data set [1] (mouse, blood, mice, PO 25 mg/kg vs IV 5 mg/kg, read-out: Absolute Bioavailability (oral)) stood at 75.6%. Moreover, the “oral pK values over the 24 hour duration of the assay” value in data set [1] (oral, 24 hours) was “remain relatively constant”.
`Cn1c(-c2ccccc2C(F)(F)F)c(I)c2cc(C(=O)O)c(O)cc21` [Compound 207a, 6-hydroxy-3-iodo-1-methyl-2-(2-(trifluoromethyl)phenyl)-1H-indole-5-carboxylic acid] had an IC50 against SHP1-D1C of 86.8 ± 0.4 µM.
